Our source for the EC50 and CC50 values is US9884818B2, “Sulphamoylpyrrolamide derivatives and the use thereof as medicaments for the treatment of hepatitis B” (Janssen Sciences Ireland UC, priority 2013, dated 2018).

The subject of data set [1] is HBV. As to the kind of experiment: Anti-HBV activity, HepG2.2.15 stable transfected cell line, HBV DNA from secreted virions by realtime PCR. The conditions noted are these: Hepatitis B virus, HepG2.2.15, 144 h. Format: cell-based.
Data set [2] in a line: Cytotoxicity in HepG2 cells, Resazurin viability assay. The conditions noted are these: human. In general terms: Alamar Blue is a resazurin reagent that responds to reducing activity.
The subject of data set [3] is HBV. As to the kind of experiment: Anti-HBV activity, HepG2.117 inducibly HBV producing cell line (Tet-off), intracellular HBV DNA by realtime PCR. Format: cell-based. The settings on record: Hepatitis B virus, HepG2.117, 72 h.
Where [4] appears, read: HepG2.2.15 cells, 6 days of treatment, HBV DNA from secreted virions, read-out: HepG2 2.15 EC50.
The mark [5] stands for this setting: HepG2 cells, HepG2 4 days CC50 (μM), incubated for 4 days, Resazurin assay.
Where [6] appears, read: HepG2.117 cells, 3 days of treatment, intracellular HBV DNA, read-out: HepG2 117 EC50.

Molecules are shown by their SMILES. A value given as a limit tells only on which side of the number the result lay.

Usually EC50 stands for the concentration needed to bring the measured effect to its halfway point. As usually defined, the CC50 is the concentration that lowers cell viability or growth by half. Lower therefore signals harm at low concentration. Regarding `Cn1cc(S(=O)(=O)NC(C)(C)C)c(Cl)c1C(=O)Nc1ccc(F)c(Cl)c1` [Compound 220, 4-(tert-Butylsulfamoyl)-3-chloro-N-(3-chloro-4-fluorophenyl)-1-methyl-1H-pyrrole-2-carboxamide], the EC50 was found to be 0.1 µM in data set [1] (setting [4]) and 0.04 µM in data set [3] (setting [6]). Besides, the CC50 at 4 days in data set [2] (setting [5]) was above 25 µM.

Consider `C[C@@H](NS(=O)(=O)c1cn(C)c(C(=O)Nc2ccc(F)c(Br)c2F)c1F)C(F)(F)F` [Compound 184, N-(3-Bromo-2,4-difluorophenyl)-3-fluoro-1-methyl-4-{[(1R)-2,2,2-trifluoro-1-methylethyl]sulfamoyl}-1H-pyrrole-2-carboxamide], for which the EC50 in data set [1] (setting [4]) stood at 0.008 µM; in data set [3] (setting [6]) it was 0.006 µM. In data set [2] (setting [5]), the half-maximal cytotoxic concentration (CC50) at 4 days was above 25 µM.

As to `Cn1cc(S(=O)(=O)NC(C)(C)C(F)(F)F)cc1C(=O)Nc1cc(F)c(F)c(Cl)c1` [Compound 96, N-(3-Chloro-4,5-difluorophenyl)-1-methyl-4-[(2,2,2-trifluoro-1,1-dimethylethyl)sulfamoyl]-1H-pyrrole-2-carboxamide], the EC50 in data set [1] (setting [4]) worked out at 0.01 µM; in data set [3] (setting [6]) it was 0.03 µM. In data set [2] (setting [5]), this molecule yielded a CC50 at 4 days of 23.7 µM.

`Cn1cc(S(=O)(=O)NC2(C(F)(F)F)CCOCC2)cc1C(=O)Nc1ccc(F)c(C#N)c1` [Compound 247, N-(3-cyano-4-fluoro-phenyl)-1-methyl-4-{[4-(trifluoromethyl)tetrahydropyran-4-yl]sulfamoyl}-1H-pyrrole-2-carboxamide]: the EC50 in data set [1] (setting [4]) and in data set [3] (setting [6]) was 0.03 µM each time. This molecule also returned a CC50 at 4 days in data set [2] (setting [5]) above 25 µM.

For the molecule `C[C@@H](NS(=O)(=O)c1cn(C)c(C(=O)Nc2ccc(F)c(C#N)c2F)c1Cl)C(F)(F)F` [Compound 276, 3-chloro-N-(3-cyano-2,4-difluoro-phenyl)-1-methyl-4-[[(1R)-2,2,2-trifluoro-1-methyl-ethyl]sulfamoyl]pyrrole-2-carboxamide], the EC50 in data set [1] (setting [4]) and in data set [3] (setting [6]) was 0.01 µM each time. The same molecule returned a CC50 at 4 days in data set [2] (setting [5]) above 25 µM.

For `CNC(=O)C1(NS(=O)(=O)c2cc(C(=O)Nc3cc(F)c(F)c(Cl)c3)n(C)c2)CC1` [Compound 115, N-(3-Chloro-4,5-difluorophenyl)-1-methyl-4-{[1-(methylcarbamoyl)cyclopropyl]sulfamoyl}-1H-pyrrole-2-carboxamide], the EC50 turned out to be 0.3 µM in data set [1] (setting [4]) and 0.11 µM in data set [3] (setting [6]). For the same molecule, the CC50 at 4 days in data set [2] (setting [5]) was above 25 µM.

For `Cn1cc(S(=O)(=O)N[C@H]2C[C@@H](O)C2)cc1C(=O)Nc1ccc(F)c(F)c1` [Compound 25, N-(3,4-difluorophenyl)-4-[(3-hydroxycyclobutyl)sulfamoyl]-1-methyl-pyrrole-2-carboxamide], the EC50 in data set [1] (setting [4]) was 0.34 µM; in data set [3] (setting [6]) it was 0.23 µM. This molecule also displayed a CC50 at 4 days in data set [2] (setting [5]) above 25 µM.

Consider `C[C@H](NS(=O)(=O)c1cc(C(=O)Nc2ccc(F)c(C#N)c2F)n(C)c1)C(F)(F)F` [Compound 196, N-(3-Cyano-2,4-difluorophenyl)-1-methyl-4-{[(1S)-2,2,2-trifluoro-1-methylethyl]sulfamoyl}-1H-pyrrole-2-carboxamide], for which the EC50 amounted to 0.1 µM in data set [1] (setting [4]) and 0.08 µM in data set [3] (setting [6]). The molecule further yielded a half-maximal cytotoxic concentration (CC50) at 4 days in data set [2] (setting [5]) above 25 µM.

Regarding `Cc1cc(NC(=O)c2cc(S(=O)(=O)NC3(C)COC3)cn2C)cc(C(F)(F)F)c1F` [Compound 79, N-[4-Fluoro-3-methyl-5-(trifluoromethyl)phenyl]-1-methyl-4-[(3-methyloxetan-3-yl)sulfamoyl]-1H-pyrrole-2-carboxamide], the EC50 in data set [1] (setting [4]) is 0.53 µM; in data set [3] (setting [6]), 0.46 µM. The molecule also came in with a CC50 at 4 days in data set [2] (setting [5]) above 25 µM.

For `CC(C)NS(=O)(=O)c1cc(C(=O)Nc2cccc(C#N)c2F)n(C)c1` [Compound 176, N-(3-Cyano-2-fluorophenyl)-1-methyl-4-[(1-methylyl)sulfamoyl]-1H-pyrrole-2-carboxamide], the values for the EC50 in data set [1] (setting [4]) and in data set [3] (setting [6]) were 0.5 µM and 0.37 µM, respectively. In data set [2] (setting [5]), this molecule showed a CC50 at 4 days above 25 µM.

For `Cc1c(S(=O)(=O)N[C@H](C)C(F)(F)F)cc(C(=O)Nc2ccc(F)c(Cl)c2)n1C` [Compound 138, N-(3-Chloro-4-fluorophenyl)-1,5-dimethyl-4-{[(1R)-2,2,2-trifluoro-1-methylethyl]sulfamoyl}-1H-pyrrole-2-carboxamide], the EC50 in data set [1] (setting [4]) was determined as 0.1 µM; in data set [3] (setting [6]) it was 0.03 µM. This molecule yielded a cytotoxic concentration (CC50) at 4 days in data set [2] (setting [5]) above 25 µM.

`CC[C@H](NS(=O)(=O)c1cn(C)c(C(=O)Nc2ccc(F)c(C#N)c2)c1Cl)C(F)(F)F` [Compound 289, 3-chloro-N-(3-cyano-4-fluoro-phenyl)-1-methyl-4-[[(15)-1-(trifluoro-methyl)propyl]sulfamoyl]pyrrole-2-carboxamide]: the concentration giving a half-maximal response (EC50) in data set [1] (setting [4]) was 0.04 µM; in data set [3] (setting [6]), 0.05 µM. Further, the CC50 at 4 days in data set [2] (setting [5]) was above 25 µM.

`Cn1cc(S(=O)(=O)NC(C)(C)C)cc1C(=O)Nc1ccc(F)c(F)c1` [Compound 19, 4-(tert-butylsulfamoyl)-N-(3,4-difluorophenyl)-1-methyl-pyrrole-2-carboxamide]: the results for the EC50 in data set [1] (setting [4]) and in data set [3] (setting [6]) were 0.06 µM and 0.08 µM, respectively. The molecule also returned a CC50 at 4 days in data set [2] (setting [5]) above 25 µM.

Turning to `Cc1c(S(=O)(=O)N[C@H](C)C(F)(F)F)cn(C)c1C(=O)Nc1cc(F)c(F)c(Cl)c1` [Compound 202, N-(3-Chloro-4,5-difluorophenyl)-1,3-dimethyl-4-{[(1R)-2,2,2-trifluoro-1-methylethyl]sulfamoyl}-1H-pyrrole-2-carboxamide], the EC50 in data set [1] (setting [4]) amounted to 0.03 µM; in data set [3] (setting [6]), 0.02 µM. The same molecule displayed a CC50 at 4 days in data set [2] (setting [5]) above 25 µM.

As to `CC[C@@H](C)NS(=O)(=O)c1cn(C)c(C(=O)Nc2ccc(F)c(C#N)c2)c1Cl` [Compound 295, 3-chloro-N-(3-cyano-4-fluoro-phenyl)-1-methyl-4-[[(1R)-1-methyl-propyl]sulfamoyl]pyrrole-2-carboxamide], the EC50 came out at 0.02 µM in data set [1] (setting [4]) and 0.03 µM in data set [3] (setting [6]). In addition, the cytotoxic concentration (CC50) at 4 days in data set [2] (setting [5]) is above 25 µM.

As for `Cn1cc(S(=O)(=O)NC2(C)COC2)cc1C(=O)Nc1cc(F)c(F)c(Br)c1` [Compound 48, N-(3-bromo-4,5-difluoro-phenyl)-1-methyl-4-[(3-methyloxetan-3-yl)-sulfamoyl]pyrrole-2-carboxamide], the EC50 in data set [1] (setting [4]) was determined as 0.05 µM; in data set [3] (setting [6]), 0.06 µM. The molecule also returned a CC50 at 4 days in data set [2] (setting [5]) above 25 µM.

In the case of `Cc1cc(NC(=O)c2cc(S(=O)(=O)NC(C)C)cn2C)ccc1F` [Compound 2, N-(4-fluoro-3-methyl-phenyl)-4-(isopropylsulfamoyl)-1-methyl-pyrrole-2-carboxamide], the values for the EC50 in data set [1] (setting [4]) and in data set [3] (setting [6]) were 0.03 µM and 0.06 µM, respectively. Also, the CC50 at 4 days in data set [2] (setting [5]) was above 25 µM.

`Cc1c(F)ccc(NC(=O)c2cc(S(=O)(=O)N[C@H](C)C(F)(F)F)cn2C)c1F` [Compound 116, N-(2,4-Difluoro-3-methylphenyl)-1-methyl-4-{[(1R)-2,2,2-trifluoro-1-methylethyl]sulfamoyl}-1H-pyrrole-2-carboxamide]: the EC50 was determined as 0.03 µM in data set [1] (setting [4]) and 0.02 µM in data set [3] (setting [6]). In data set [2] (setting [5]), this molecule displayed a CC50 at 4 days above 25 µM.

Turning to `Cn1cc(S(=O)(=O)NC2(C)COC2)c(F)c1C(=O)Nc1ccc(F)c(C(F)F)c1` [Compound 107, N-[3-(Difluoromethyl)-4-fluorophenyl]-3-fluoro-1-methyl-4-[(3-methyloxetan-3-yl)sulfamoyl]-1H-pyrrole-2-carboxamide], the 50% effective concentration (EC50) in data set [1] (setting [4]) and in data set [3] (setting [6]) was 0.01 µM throughout. For the same molecule, the CC50 at 4 days in data set [2] (setting [5]) is above 25 µM.

With `Cn1cc(S(=O)(=O)NCCC(F)(F)F)cc1C(=O)Nc1cc(F)c(F)c(Cl)c1` [Compound 168, N-(3-Chloro-4,5-difluorophenyl)-1-methyl-4-[(3,3,3-trifluoropropyl)sulfamoyl]-1H-pyrrole-2-carboxamide], the 50% effective concentration (EC50) was 0.12 µM in data set [1] (setting [4]) and 0.32 µM in data set [3] (setting [6]). This molecule also had a CC50 at 4 days in data set [2] (setting [5]) above 25 µM.

In the case of `Cc1c(S(=O)(=O)NC2(C)COC2)cc(C(=O)Nc2cc(F)c(F)c(Cl)c2)n1C` [Compound 136, N-(3-Chloro-4,5-difluorophenyl)-1,5-dimethyl-4-[(3-methyloxetan-3-yl)sulfamoyl]-1H-pyrrole-2-carboxamide], the EC50 in data set [1] (setting [4]) and in data set [3] (setting [6]) was 0.06 µM throughout. In data set [2] (setting [5]), this molecule came in with a CC50 at 4 days above 25 µM.

As for `Cn1cc(S(=O)(=O)NCC(F)(F)F)cc1C(=O)Nc1ccc(F)c(F)c1` [Compound 132, N-(3,4-Difluorophenyl)-1-methyl-4-[(2,2,2-trifluoroethyl)sulfamoyl]-1H-pyrrole-2-carboxamide], the EC50 was 0.08 µM in data set [1] (setting [4]) and 0.07 µM in data set [3] (setting [6]). Further, the CC50 at 4 days in data set [2] (setting [5]) was above 25 µM.

As to `Cn1cc(S(=O)(=O)NC2(C)COC2)cc1C(=O)Nc1ccc(C#N)c(C(F)(F)F)c1` [Compound 51, N-[4-cyano-3-(trifluoromethyl)phenyl]-1-methyl-4-[(3-methyloxetan-3-yl)-sulfamoyl]-1H-pyrrole-2-carboxamide], the EC50 in data set [1] (read-out: HepG2 2.15 EC50 (μM)) and in data set [3] (read-out: HepG2 117 EC50 (μM)) was above 1 µM throughout. The same molecule had a cytotoxic concentration (CC50) at 4 days in data set [2] above 25 µM.

As for `Cn1cc(S(=O)(=O)NC2(C)CC(F)(F)C2)cc1C(=O)Nc1ccc(F)c(C#N)c1` [Compound 245, N-(3-cyano-4-fluoro-phenyl)-4-[(3,3-difluoro-1-methyl-cyclobutyl)sulfamoyl]-1-methyl-1H-pyrrole-2-carboxamide], the half-maximal effective concentration (EC50) in data set [1] (setting [4]) and in data set [3] (setting [6]) was 0.04 µM in each case. In addition, the CC50 at 4 days in data set [2] (setting [5]) is above 25 µM.

Turning to `C[C@@H](NS(=O)(=O)c1cn(C)c(C(=O)Nc2ccc(F)c(F)c2)c1F)C(F)(F)F` [Compound 229, N-(3,4-Difluorophenyl)-3-fluoro-1-methyl-4-{[(1R)-2,2,2-trifluoro-1-methylethyl]sulfamoyl}-1H-pyrrole-2-carboxamide], the EC50 in data set [1] (setting [4]) and in data set [3] (setting [6]) was 0.004 µM each time. The molecule further showed a 50% cytotoxic concentration (CC50) at 4 days in data set [2] (setting [5]) above 25 µM.
